# Source: patent US12528790B2, “Amide derivative having antiviral activity” (Shionogi & Co., Ltd., priority 2020, dated 2026)
# Like-named read-outs stand apart in the source and are kept apart here.
# Columns and labels:
# RSV A2 strain = experiment: In vitro CPE (CytoPathic Effect) inhibition effect evaluation test, RSV type A; format: cell-based
# Outline: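 HEp-2 cells (2.4×10^5 cells/mL, 2% FBS E-MEM) were infected with RSV alongside 3-fold compound dilutions and incubated at 37 °C, 4 days for A2 and 5 days for B Wash/18537. Viable cells quantified by CellTiter-Glo 2.0 luminescence; EC50 by nonlinear regression as 50% CPE inhibition.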
# [1] = tested on: RSV B (Wash/18537 strain); experiment: In vitro CPE (CytoPathic Effect) inhibition effect evaluation test, RSV type B; format: cell-based
# Method: The test sample is diluted in advance to an appropriate concentration with DMSO, and 3-fold series of serial dilutions were prepared on a 384-well plate (0.32 μL/well). HEp-2 cells (CCL-23; ATCC) adjusted at appropriate number (2.4×10^5 cells/mL) in 2% FBS E-MEM (prepared by adding kanamycin and FBS to Eagle's Minimum Essential Medium; Invitrogen) were added at 12.5 μL/well to the 384-well plate previously aliquoted with the test samples. The RSV A2 strain was diluted to an appropriate concentration in a culture medium and added to the 384-well plate containing the test sample at 12.5 μL/well. The culture medium was added additionally to the 384-well plate, and the test was started with 50 μL/well. Control wells were prepared with only virus-free culture medium. The plate was incubated in a 5% CO2 incubator at 37° C. for 4 days, and the plate was then placed at room temperature for 30 minutes. CellTiter-Glo (registered trademark) 2.0 assay (Promega) was added at 15 μL/well, mixed for 30 seconds, and the plate was placed for approximately 1 hour. The luminescent signal was then measured by EnVision (PerkinElmer). The inhibitory effect of the test agents on RSV-induced CPE was calculated as 0% and 100% inhibition rate for each sample concentration based on the level of remaining viable cells by CellTiter-Glo (registered trademark) 2.0, with the EC50 value for each compound calculated by nonlinear regression as the concentration that inhibits RSV-induced CPE by 50%. In the case of evaluation against RSV type B, RSV B (Wash/18537 strain) was infected in the same manner as the type A, cultured for 5 days, and quantitated in the same manner as for the A2 strain.
# [2] = human respiratory syncytial virus, inhibitory effect against RSV type A (RSV A2 strain), HEp-2 cells, CPE inhibition, read-out: EC50
# [3] = human respiratory syncytial virus, inhibitory effect against RSV type B, CPE inhibition, read-out: EC50
# [4] = inhibitory effect against RSV type A (RSV A2 strain), HEp-2 cells, CPE inhibition, read-out: EC50
# [5] = inhibitory effect against RSV type B, CPE inhibition, read-out: EC50
Compound,EC50 (RSV A2 strain; [2]) [nM],further results
Cn1cc2c(n1)CCC(Oc1ccc3c(c1)C1(CCOCC1)CN3c1ncc(C(=O)NC3(C(=O)O)C4CC5CC(C4)CC3C5)c(C(F)(F)F)n1)C2 (racemic) [Compound I-189],< 10,"EC50 [1, 3]: < 10 nM"
O=C(NC1(C(=O)O)C2CC3CC(C2)CC1C3)c1cnc(N2CC3(CCOC3)c3cc(OC4CCN(c5ncccn5)CC4)ccc32)nc1C(F)(F)F (racemic) [Compound I-257],< 10,"EC50 [1, 3]: < 10 nM"
COCC(C)n1cc(-c2ncc(C(=O)NC3(C(=O)O)C4CC5CC(C4)CC3C5)c(C(F)(F)F)n2)c2ccc(OC3CCN(c4ncc(F)cn4)CC3)cc21 (racemic) [Compound I-430],< 10,"EC50 [1, 3]: < 10 nM"
O=C(NC1(C(=O)O)C2CC3CC(C2)CC1C3)c1cnc(N2CC3(CCOC3)c3cc(OCC(F)(F)F)ccc32)nc1C(F)(F)F (racemic) [Compound I-466],< 10,"EC50 [1, 3]: 10 to 100 nM"
O=C(NC1(C(=O)O)C2CC3CC(C2)CC1C3)c1cnc(N2CC3(CCOC3)c3cc(OC4CCN(CC(F)(F)F)CC4)ccc32)nc1C(F)(F)F (racemic) [Compound I-467],< 10,"EC50 [1, 3]: < 10 nM"
O=C(NC1(C(=O)O)C2CC3CC(C2)CC1C3)c1cnc(N2CC3(CCCCC3)c3cc(OC4CCC(=NOC5CC(F)(F)C5)CC4)ccc32)nc1C(F)(F)F (racemic) [Compound I-475],,"EC50 (RSV A2 strain; [4]): < 10 nM; EC50 [1, 5]: 10 to 100 nM"
O=C(NC1(C(=O)O)C2CC3CC(C2)CC1C3)c1cnc(N2CC(C3CCCC3)c3cc(OC4CCN(c5ncc(F)cn5)CC4)ccc32)nc1C(F)(F)F (racemic) [Compound I-486],,"EC50 (RSV A2 strain; human respiratory syncytial virus, HEp-2, 96 h, read-out: EC50, inhibitory effect against RSV type A (CPE inhibition)): 3 nM; EC50 ([1]; human respiratory syncytial virus, HEp-2, 120 h, HEp-2 cells, RSV B (Wash/18537 strain), 5 days, CellTiter-Glo, read-out: EC50, inhibitory effect against RSV type B (CPE inhibition)): 28 nM"
O=C(NC1(C(=O)O)C2CC3CC(C2)CC1C3)c1cnc(N2CC(C3CCCC3)c3cc(OC4CCN(CC(F)(F)F)CC4)ccc32)nc1C(F)(F)F (racemic) [Compound I-487],< 10,"EC50 [1, 3]: 10 to 100 nM"
"COc1cccc(COc2ccc3c(c2)CCN3c2ncc(C(=O)NC3(C(=O)O)CC4CCC3C4)c(C(F)(F)F)n2)c1 (single isomer, unassigned) [Compound I-16]",< 10,"EC50 [1, 3]: 10 to 100 nM"
"Cn1ncc2c1CCC(Oc1ccc3c(c1)C1(CCOCC1)CN3c1ncc(C(=O)NC3(C(=O)O)C4CC5CC(C4)CC3C5)c(C(F)(F)F)n1)C2 (single isomer, unassigned) [Compound I-190]",< 10,"EC50 [1, 3]: < 10 nM"
"O=C(NC1(C(=O)O)C2CC3CC(C2)CC1C3)c1ccc(-c2cn(C3CCC(F)CC3)c3cc(OC4CCN(c5ncc(F)cn5)CC4)ccc23)nc1C(F)(F)F (single isomer, unassigned) [Compound I-397]",< 10,"EC50 [1, 3]: < 10 nM"
"O=C(NC1(C(=O)O)C2CC3CC(C2)CC1C3)c1cnc(-c2cn(C3CCC(F)(F)CC3)c3cc(OC4CC(N5CC(F)(F)C5)C4)ccc23)nc1C(F)(F)F (single isomer, unassigned) [Compound I-412]",< 10,"EC50 [1, 3]: 10 to 100 nM"
"O=C(NC1(C(=O)O)C2CC3CC(C2)CC1C3)c1cnc(-c2cn(C3CCC(F)(F)CC3)c3cc(OC4CC(N5CC(F)(F)C5)C4)ccc23)nc1C(F)(F)F (single isomer, unassigned) [Compound I-413]",,"EC50 (RSV A2 strain; [4]): < 10 nM; EC50 [1, 5]: 10 to 100 nM"
O=C(NC1(C(=O)O)C2CC3CC(C2)CC1C3)c1cnc(-c2cn(C3CCC(F)(F)CC3)c3cc(OC4CCC(F)(F)CC4)ccc23)nc1C(F)(F)F (stereo not shown) [Compound I-419],< 10,
O=C(NC1(C(=O)O)C2CC3CC(C2)CC1C3)c1cnc(-c2cn(C3CCC(F)(F)CC3)c3cc(OC4CCN(c5ncc(F)s5)CC4)ccc23)nc1C(F)(F)F (stereo not shown) [Compound I-420],< 10,
O=C(NC1(C(=O)O)C2CC3CC(C2)CC1C3)c1cnc(-c2cn(C3CCC(F)(F)CC3)c3cc(OC4CCN(CC5(F)CC5)CC4)ccc23)nc1C(F)(F)F (stereo not shown) [Compound I-425],< 10,
O=C(NC1(C(=O)O)C2CC3CC(C2)CC1C3)c1cnc(-c2cn(C3CCC(F)(F)CC3)c3cc(OCCN4CC(F)(F)C4)ccc23)nc1C(F)(F)F (stereo not shown) [Compound I-426],< 10,
O=C(NC1(C(=O)O)C2CC3CC(C2)CC1C3)c1cnc(-c2cn(C3CCC(F)(F)CC3)c3cc(OC4CCC(C(F)(F)F)CC4)ccc23)nc1C(F)(F)F (stereo not shown) [Compound I-428],< 10,
O=C(NC1(C(=O)O)C2CC3CC(C2)CC1C3)c1cnc(-c2cn(C3CCC(F)(F)CC3)c3cc(OC4CCN(c5ncc(F)cc5F)CC4)ccc23)nc1C(F)(F)F (stereo not shown) [Compound I-432],< 10,
O=C(NC1(C(=O)O)C2CC3CC(C2)CC1C3)c1cnc(-c2cn(C3CCC(F)(F)CC3)c3cc(C(=O)N4CCN(c5ncc(F)cn5)CC4)ccc23)nc1C(F)(F)F (stereo not shown) [Compound I-433],< 10,

Compound,EC50 (RSV A2 strain; [2]) [nM],further results
O=C(NC1(C(=O)O)C2CC3CC(C2)CC1C3)c1cnc(N2CC3(CCOCC3)c3cc(Nc4ncccn4)ccc32)nc1C(F)(F)F (stereo not shown) [Compound I-435],< 10,
O=C(NC1(C(=O)O)C2CC3CC(C2)CC1C3)c1cnc(N2CC3(CCOCC3)c3cc(Nc4ccc(C(F)(F)F)cn4)ccc32)nc1C(F)(F)F (stereo not shown) [Compound I-436],< 10,
O=C(NC1(C(=O)O)C2CC3CC(C2)CC1C3)c1cnc(N2CC3(CCCCC3)c3c2ccc(OC2CCN(c4ncccn4)CC2)c3F)nc1C(F)(F)F (stereo not shown) [Compound I-439],< 10,
CC(F)(F)c1nc(N2CC3(CCCCC3)c3cc(OC4CCN(CC(F)(F)F)CC4)ccc32)nc(C(C)(F)F)c1C(=O)NC1(C(=O)O)C2CC3CC(C2)CC1C3 (stereo not shown) [Compound I-441],10 to 100,
O=C(NC1(C(=O)O)C2CC3CC(C2)CC1C3)c1cnc(N2CC3(CCOCC3)c3cc(OCCC(F)(F)F)ccc32)nc1C(F)(F)F (stereo not shown) [Compound I-442],< 10,
O=C(NC1(C(=O)O)C2CC3CC(C2)CC1C3)c1cnc(-c2cn(Cc3ccccc3)c3cc(OC4CCN(c5ncc(F)cn5)CC4)ccc23)nc1C(F)(F)F (stereo not shown) [Compound I-446],< 10,
CN(CC(F)(F)F)[C@H]1CC[C@@H](Oc2ccc3c(-c4ncc(C(=O)NC5(C(=O)O)C6CC7CC(C6)CC5C7)c(C(F)(F)F)n4)cn(C4CCC(F)(F)CC4)c3c2)CC1 (stereo partly shown) [Compound I-448],< 10,
CN(CC(F)(F)F)[C@H]1CC[C@H](Oc2ccc3c(-c4ncc(C(=O)NC5(C(=O)O)C6CC7CC(C6)CC5C7)c(C(F)(F)F)n4)cn(C4CCC(F)(F)CC4)c3c2)CC1 (stereo partly shown) [Compound I-450],< 10,
COc1ccc2c(c1)c(-c1ncc(C(=O)NC3(C(=O)O)C4CC5CC(C4)CC3C5)c(C(F)(F)F)n1)cn2C1CCC(F)(F)CC1 (stereo not shown) [Compound I-454],10 to 100,
COc1ccc2c(-c3ncc(C(=O)NC4(C(=O)O)C5CC6CC(C5)CC4C6)c(C(F)(F)F)n3)cn(C3CCC(F)(F)CC3)c2c1 (stereo not shown) [Compound I-455],10 to 100,
O=C(NC1(C(=O)O)C2CC3CC(C2)CC1C3)c1cnc(N2CC3(CCCCC3)c3cc(O[C@H]4CC[C@H](ON=C5CCC(F)(F)CC5)CC4)ccc32)nc1C(F)(F)F (stereo partly shown) [Compound I-456],10 to 100,
O=C(NC1(C(=O)O)C2CC3CC(C2)CC1C3)c1cnc(N2CC3(CCCCC3)c3cc(O[C@H]4CC[C@@H](ON=C5CCC(F)(F)CC5)CC4)ccc32)nc1C(F)(F)F (stereo partly shown) [Compound I-457],10 to 100,
O=C(NC1(C(=O)O)C2CC3CC(C2)CC1C3)c1cnc(N2CC3(CCOCC3)c3cc(OCC(F)F)ccc32)nc1C(F)(F)F (stereo not shown) [Compound I-459],< 10,
O=C(NC1(C(=O)O)C2CC3CC(C2)CC1C3)c1cnc(N2CC3(CCCCC3)c3cc(O[C@H]4CC[C@H](ON=C5CC(F)(F)C5)CC4)ccc32)nc1C(F)(F)F (stereo partly shown) [Compound I-460],< 10,
O=C(NC1(C(=O)O)C2CC3CC(C2)CC1C3)c1cnc(N2CC3(CCCCC3)c3cc(O[C@H]4CC[C@@H](ON=C5CC(F)(F)C5)CC4)ccc32)nc1C(F)(F)F (stereo partly shown) [Compound I-461],10 to 100,
O=C(NC1(C(=O)O)C2CC3CC(C2)CC1C3)c1cnc(N2CC3(CCCC3)c3cc(O[C@H]4CC[C@H](N5CC(F)(F)C5)CC4)ccc32)nc1C(F)(F)F (stereo partly shown) [Compound I-462],< 10,
O=C(NC1(C(=O)O)C2CC3CC(C2)CC1C3)c1cnc(-c2cn(-c3ncccn3)c3cc(OC4CCN(c5ncc(F)cn5)CC4)ccc23)nc1C(F)(F)F (stereo not shown) [Compound I-468],< 10,
O=C(NC1(C(=O)O)C2CC3CC(C2)CC1C3)c1cnc(-c2cn(CCc3ccccc3)c3cc(OC4CCN(c5ncc(F)cn5)CC4)ccc23)nc1C(F)(F)F (stereo not shown) [Compound I-469],< 10,
O=C(NC1(C(=O)O)C2CC3CC(C2)CC1C3)c1cnc(N2CC3(CCOCC3)c3cc(-n4ncc5cccnc54)ccc32)nc1C(F)(F)F (stereo not shown) [Compound I-471],< 10,
